Results published in patent publication US9724352B2, “Pyrrolo[2,1-F[1,2,4]triazine compounds, preparation methods and applications thereof” (Shanghai Institute of Materia Medica, Chinese Academy of …, priority 2012, dated 2017).
Blank lines part the entries; values can stand above or below the compound they belong to.

Columns and labels:
[1] = test system: human rhabdomyosarcoma Rh30 cells; experiment: Proliferation of Rh30 cells (sulforhodamine B); type: cell-based; conditions: for IC50: Homo sapiens, Rh30, 72 h, read-out: IC50 against proliferation of Rh30 cells; for inhibitory activity on Rh30 cell proliferation (in words): 72 h
Description: Rh30 cells were seeded in a 96-well plate at 3000 cells/well. After the cells adhered, tested compounds at concentration of 10, 3, 1, 0.3, or 0.1 μM were added, and incubated for 72 h. The culture media were discarded and cells were fixed with trichloroacetic acid. After washed with distilled water for five times and dried, sulfonylrhodamine B was added. After washed with 1% glacial acetic acid for five times and dried, trihydroxymethylaminomethane buffer was added. OD value was measured by using a microplate reader at a wavelength of 560 nm.

[2] = test system: human neuroglioma U87-MG xenograft; experiment: Growth of U87-MG xenograft subcutaneously transplanted in nude mouse; type: in vivo; conditions: for growth of subcutaneously transplanted U87MG xenograft (in words): p.o. once a day for three weeks
Description: Well-developed tumors in nude mice were cut into 1.5 mm3 fragments and transplanted s.c. into the right flank of nude mice under sterile conditions. The diameters of subcutaneously transplanted tumours in nude mice were measured with a vernier calipe. […] Control groups were given the same amount of blank solvent, and treatment groups received tested compounds (p.o.). Compounds were administrated once a day for three weeks. Throughout the experiment, the sizes of the tumours were measured twice per week and meanwile the body weights of mice were weighed. The tumour volume (TV) was calculated as follows: TV=½×a×b2, wherein a and b represent the length and width, respectively. The individual relative tumour volume (RTV) was calculated as follows: RTV=Vt/V0, where V0 is the volume at the beginning of the treatment and Vt is the volume measured every time. Evaluation index of antitumor activity was relative tumor proliferation rate T/C (%), the calculation formula of which was as follows: T/C (%)=(TRTV/CRTV)×100%, TRTV:RTV of treatment group; CRTV:RTV of negative control group.

IC50 [1]: 530 nM
SMILES: C[C@H]1COCCN1c1nc(-c2cnc(N)cc2C(F)(F)F)nn2cc(CN3CCN(S(C)(=O)=O)CC3)cc12 [Compound I-34, (S)-5-(4-(3-methylmorpholino)-6-((4-(methylsulfonyl)piperazin-1-yl)methyl)pyrrolo[2,1-f][1,2,4]triazin-2-yl)-4-(trifluoromethyl)pyridin-2-amine]

SMILES: COC(=O)Nc1cc(C(F)(F)F)c(-c2nc(N3CCOCC3)c3cc(CN4CCN(S(C)(=O)=O)CC4)cn3n2)cn1.CS(=O)(=O)O [I-33 (mesylate), Methyl (5-(6-((4-(methylsulfonyl)piperazin-1-yl)methyl)-4-morpholinopyrrolo[2,1-f][1,2,4]triazin-2-yl)-4-(trifluoromethyl)pyridin-2-yl)carbamate mesylate]
Relative tumor proliferation rate T/C ([2]; 20 mg/kg p.o. once a day, d0): 100.00% | Relative tumor proliferation rate T/C ([2]; 20 mg/kg p.o. once a day, d3): 84.69% | Relative tumor proliferation rate T/C ([2]; 20 mg/kg p.o. once a day, d7): 65.90% | Relative tumor proliferation rate T/C ([2]; 20 mg/kg p.o. once a day, d10): 55.24% | Relative tumor proliferation rate T/C ([2]; 20 mg/kg p.o. once a day, d14): 37.48% | Relative tumor proliferation rate T/C ([2]; 20 mg/kg p.o. once a day, d17): 31.92% | Relative tumor proliferation rate T/C ([2]; 20 mg/kg p.o. once a day, d21): 32.61% | Relative tumor proliferation rate T/C ([2]; 50 mg/kg p.o. once a day, d0): 100.00% | Relative tumor proliferation rate T/C ([2]; 50 mg/kg p.o. once a day, d3): 82.76% | Relative tumor proliferation rate T/C ([2]; 50 mg/kg p.o. once a day, d7): 59.61% | Relative tumor proliferation rate T/C ([2]; 50 mg/kg p.o. once a day, d10): 54.74% | Relative tumor proliferation rate T/C ([2]; 50 mg/kg p.o. once a day, d14): 36.93% | Relative tumor proliferation rate T/C ([2]; 50 mg/kg p.o. once a day, d17): 29.89% | Relative tumor proliferation rate T/C ([2]; 50 mg/kg p.o. once a day, d21): 25.65% | growth of subcutaneously transplanted U87MG xenograft (in words) [2]: significantly inhibited the growth

SMILES: CCNC(=O)Nc1cc(C(F)(F)F)c(-c2nc(N3CCOCC3)c3cc(CN4CCN(S(C)(=O)=O)CC4)cn3n2)cn1.CS(=O)(=O)O [I-30 (mesylate), 1-Ethyl-3-(5-(6-((4-(methylsulfonyl)piperazin-1-yl)methyl)-4-morpholinopyrrolo[2,1-f] [1,2,4]triazin-2-yl)-4-(trifluoromethyl)pyridin-2-yl)urea mesylate]
Relative tumor proliferation rate T/C ([2]; 50 mg/kg p.o. once a day, d0): 100.00% | Relative tumor proliferation rate T/C ([2]; 50 mg/kg p.o. once a day, d3): 67.89% | Relative tumor proliferation rate T/C ([2]; 50 mg/kg p.o. once a day, d7): 54.35% | Relative tumor proliferation rate T/C ([2]; 50 mg/kg p.o. once a day, d10): 60.45% | Relative tumor proliferation rate T/C ([2]; 50 mg/kg p.o. once a day, d14): 42.46% | Relative tumor proliferation rate T/C ([2]; 50 mg/kg p.o. once a day, d17): 41.64% | Relative tumor proliferation rate T/C ([2]; 50 mg/kg p.o. once a day, d21): 37.26% | growth of subcutaneously transplanted U87MG xenograft (in words) [2]: significant inhibitory effects

IC50 [1]: 3420 nM
SMILES: CS(=O)(=O)N1CCN(Cc2cc3c(N4CC5CCC(C4)O5)nc(-c4cnc(N)cc4C(F)(F)F)nn3c2)CC1 [Compound I-29, 5-(4-(8-oxa-3-azabicyclo[3.2.1]octan-3-yl)-6-((4-(methylsulfonyl)piperazin-1-yl)methyl)pyrrolo[2,1-f][1,2,4]triazin-2-yl)-4-(trifluoromethyl)pyridin-2-amine]

IC50 [1]: 400 nM
SMILES: CN(C)Cc1cc2c(N3CCOCC3)nc(-c3ccc(NC(=O)Nc4ccc(F)cc4)cc3)nn2c1 [Compound I-4, 1-[4-(6-dimethylaminomethyl-4-morpholinopyrrolo[2,1-f][1,2,4]triazin-2-yl)phenyl]-3-(p-fluorophenyl)urea]

SMILES: CS(=O)(=O)N1CCN(Cc2cc3c(N4CCOCC4)nc(-c4cnc(NC(=O)Oc5ccccc5)cc4C(F)(F)F)nn3c2)CC1 [Compound I-31, Phenyl (5-(6-((4-(methylsulfonyl)piperazin-1-yl)methyl)-4-morpholinopyrrolo[2,1-f][1,2,4]triazin-2-yl)-4-(trifluoromethyl)pyridin-2-yl)carbamate]
IC50 [1]: 5060 nM

IC50 [1]: 500 nM
SMILES: CN(C)Cc1cc2c(N3CCOCC3)nc(-c3ccc(NC(=O)Nc4ccc(C(=O)N(C)C)cc4)cc3)nn2c1 [Compound I-14, 4-(3-(4-(6-((dimethylamino)methyl)-4-morpholinopyrrolo[2,1-f][1,2,4]triazin-2-yl)phenyl)ureido)-N,N-dimethylbenzamide]

IC50 [1]: 74 nM
SMILES: CN(C)Cc1cc2c(N3CCOCC3)nc(-c3cccc(CO)c3)nn2c1 [Compound I-24, (3-(6-((dimethylamino)methyl)-4-morpholinopyrrolo[2,1-f][1,2,4]triazin-2-yl)phenyl)methanol]
inhibitory activity on Rh30 cell proliferation (in words) [1]: tens of nanomolar

IC50 [1]: 240 nM
SMILES: CN(C)Cc1cc2c(N3CCOCC3)nc(-c3cccc(CNS(C)(=O)=O)c3)nn2c1 [Compound I-26, N-(3-(6-((dimethylamino)methyl)-4-morpholinopyrrolo[2,1-f][1,2,4]triazin-2-yl)benzyl)methanesulfonamide]

IC50 [1]: 1240 nM
SMILES: CN(C)Cc1cc2c(N3CCOCC3)nc(-c3ccc(NC(=O)Nc4ccc(Cl)cc4)cc3)nn2c1 [Compound I-5, 1-[4-(6-dimethylaminomethyl-4-morpholinopyrrolo[2,1-f][1,2,4]triazin-2-yl)phenyl]-3-(p-chlorophenyl)urea]

IC50 [1]: 39 nM
SMILES: CN(C)Cc1cc2c(N3CCOCC3)nc(-c3cccc(CS(C)(=O)=O)c3)nn2c1 [Compound I-25, N,N-dimethyl-1-(2-(3-((methylsulfonyl)methyl)phenyl)-4-morpholinopyrrolo[2,1-f][1,2,4]triazin-6-yl)methanamine]
inhibitory activity on Rh30 cell proliferation (in words) [1]: tens of nanomolar

IC50 [1]: 990 nM
SMILES: Cc1ccc(NC(=O)Nc2ccc(-c3nc(N4CCOCC4)c4cc(CN(C)C)cn4n3)cc2)cc1 [Compound I-9, 1-(4-(6-((dimethylamino)methyl)-4-morpholinopyrrolo[2,1-f][1,2,4]triazin-2-yl)phenyl)-3-(p-tolyl)urea]

IC50 [1]: 1360 nM
SMILES: CN(C)Cc1cc2c(N3CCOCC3)nc(-c3ccc(NC(=O)Nc4cccc(Cl)c4)cc3)nn2c1 [Compound I-6, 1-(3-chlorophenyl)-3-(4-(6-((dimethylamino)methyl)-4-morpholinopyrrolo[2,1-f][1,2,4]triazin-2-yl)phenyl)urea]
